# Reference: patent US10898475B2, “Bach1 inhibitors in combination with Nrf2 activators and pharmaceutical compositions thereof” (vTv Therapeutics LLC, priority 2014, dated 2021)
# “And” between values parts separate entries of the source, which are not always exact repeats. Identical values can stand only once. Counter-ions that a name gives are not always drawn.
# Test system: HMOX1 in Normal Human Lung Fibroblasts (NHLF)
# Assay: HMOX1 Protein Expression (immunostaining, fold induction or % positive cells over DMSO)
# Conditions: for % Cells Positive HMOX: Cpd. 0 uM
# [1] = Homo sapiens, Fibroblast, read-out: Fold Induction of HMOX
# Experimental: Normal Human Lung Fibroblasts (NHLF) obtained from Lonza were cultured in T-225 flasks using conditions recommended by the vendor (FGM-2 medium supplemented with 2% fetal bovine serum (FBS), fibroblast growth factor (hFGF-B) 0.5 mL, insulin 0.5 mL, and gentamicin/amphotericin-B 0.5 mL at 37° C. in a humidified atmosphere of 5% CO2).
# For assays, cell were thawed and placed into culture in T225 flasks, grown to be 80% confluent, and harvested as described by the vendor. NHLF cells (2.5×10^4 cells per well) were plated in 384 well optilux tissue culture (BD) plates and incubated overnight in media prior to exposure to compound. Cells were incubated with DMSO or various combinations of either an Nrf2 Activator (DMF (dimethyl fumarate)/CDDO-Me) or a Bach1 Inhibitor for 16-18 hr. Cells were then fixed and permeabilized prior to incubation with HMOX1 antibody (abcam; 1:300 dilution in 1% BSA in PBS) for 1 hour. Cells were then washed and incubated with a solution of fluorescently-coupled goat anti-mouse antibody (Alexa 488 1:400 dilution Invitrogen) and Hoechst nuclear stain (1:2000; Invitrogen) in PBS containing 1% BSA for 1 hr. Immunostaining was detected using a GE InCell 2000 instrument at the following wavelengths: Hoechst Ex/Em 360/535 and Alexa 488 Ex/Em 480/535. Results were analyzed using GE InCell Analyzer software and represented as the increase fold of HMOX1 induction (Fold induction/FI) or the percentage of HMOX1 positive (% positive) cells over DMSO.
structure (smiles),measurement,setting,value
"COC(=O)[C@]12CCC(C)(C)C[C@H]1[C@H]1C(=O)C=C3[C@@]4(C)C=C(C#N)C(=O)C(C)(C)[C@@H]4CC[C@@]3(C)[C@]1(C)CC2 [Bardoxolone Methyl, methyl 2-cyano-3,12-dioxooleana-1,9(11)dien-28-oate, reference compound]",increase HMOX1 (FIG. 1 bar B),9.7 nM CDDO-Me alone,2.5 fold
same,induction of HMOX1 protein,"CDDO-Me alone, greater than or equal to 156 nM",19 fold
same,fold induction at 0.0024 µM,[1],1.31
same,fold induction at 0.0048 µM,[1],1.59
same,fold induction at 0.0097 µM,[1],2.53
same,fold induction at 0.019 µM,[1],5
same,fold induction at 0.039 µM,[1],8.48
same,fold induction at 0.078 µM,[1],12.2
same,fold induction at 0.156 µM,[1],19
same,fold induction at 0.312 µM,[1],16.4
"COC(=O)/C=C/C(=O)OC [DMF, dimethyl fumarate, reference compound]",Hill slope of DMF dose response curves in Table 2,"Bach1 Inhibitor Conc. 0 uM, % Positive HMOX",1.25 and 1.26
same,% Cells Positive HMOX,DMF 0.03 uM,1.71%
same,% Cells Positive HMOX,DMF 0.1 uM,1.21%
same,% Cells Positive HMOX,DMF 0.3 uM,2.47%
same,% Cells Positive HMOX,DMF 1 uM,4.38%
same,% Cells Positive HMOX,DMF 3 uM,41.58%
same,% Cells Positive HMOX,DMF 10 uM,74.35%
same,% Cells Positive HMOX,DMF 30 uM,84.56%
same,fold induction at 0.03 µM,[1],1.04
same,fold induction at 0.1 µM,[1],1.06
same,fold induction at 0.3 µM,[1],1.14
same,fold induction at 1 µM,[1],1.39
same,fold induction at 3 µM,[1],2.76
same,fold induction at 10 µM,[1],4.45
same,fold induction at 30 µM,[1],6.19
"CNC(=O)c1ccc2c(c1)nc(Nc1nc3ccc(OC(F)(F)F)cc3s1)n2C [HPP-A, 1-Methyl-2-(6-trifluoromethoxy-benzothiazol-2-ylamino)-1H-benzoimidazole-5-carboxylic acid methyl amide]",increase HMOX1 (FIG. 1 bar A),156 nM HPP-A alone,3.5 fold
same,combined effect on HMOX induction (FIG. 1 bar C),156 nM HPP-A combined with 9.7 nM CDDO-Me,greater than additive
same,Fold Induction of HMOX,"HPP-A 0.019 uM, Bardoxolone Methyl 0 uM",0.97 fold
same,Fold Induction of HMOX,"HPP-A 0.019 uM, Bardoxolone Methyl 0.0024 uM",3.24 fold
same,Fold Induction of HMOX,"HPP-A 0.019 uM, Bardoxolone Methyl 0.0048 uM",2.88 fold
same,Fold Induction of HMOX,"HPP-A 0.019 uM, Bardoxolone Methyl 0.0097 uM",7.14 fold
same,Fold Induction of HMOX,"HPP-A 0.019 uM, Bardoxolone Methyl 0.039 uM",15.87 fold
same,Fold Induction of HMOX,"HPP-A 0.019 uM, Bardoxolone Methyl 0.078 uM",22.27 fold
same,Fold Induction of HMOX,"HPP-A 0.019 uM, Bardoxolone Methyl 0.156 uM",22.90 fold
same,Fold Induction of HMOX,"HPP-A 0.019 uM, Bardoxolone Methyl 0.312 uM",17.20 fold
same,Fold Induction of HMOX,"HPP-A 0.039 uM, Bardoxolone Methyl 0 uM",1.09 fold
same,Fold Induction of HMOX,"HPP-A 0.039 uM, Bardoxolone Methyl 0.0024 uM",2.32 fold
same,Fold Induction of HMOX,"HPP-A 0.039 uM, Bardoxolone Methyl 0.0048 uM",3.04 fold
same,Fold Induction of HMOX,"HPP-A 0.039 uM, Bardoxolone Methyl 0.0097 uM",5.31 fold
same,Fold Induction of HMOX,"HPP-A 0.039 uM, Bardoxolone Methyl 0.019 uM",8.57 fold
same,Fold Induction of HMOX,"HPP-A 0.039 uM, Bardoxolone Methyl 0.078 uM",18.69 fold
same,Fold Induction of HMOX,"HPP-A 0.039 uM, Bardoxolone Methyl 0.156 uM",17.24 fold
same,Fold Induction of HMOX,"HPP-A 0.039 uM, Bardoxolone Methyl 0.312 uM",17.44 fold
same,Fold Induction of HMOX,"HPP-A 0.078 uM, Bardoxolone Methyl 0 uM",1.92 fold
same,Fold Induction of HMOX,"HPP-A 0.078 uM, Bardoxolone Methyl 0.0024 uM",4.25 fold
same,Fold Induction of HMOX,"HPP-A 0.078 uM, Bardoxolone Methyl 0.0048 uM",4.72 fold
same,Fold Induction of HMOX,"HPP-A 0.078 uM, Bardoxolone Methyl 0.0097 uM",8.43 fold
same,Fold Induction of HMOX,"HPP-A 0.078 uM, Bardoxolone Methyl 0.019 uM",13.21 fold
same,Fold Induction of HMOX,"HPP-A 0.078 uM, Bardoxolone Methyl 0.039 uM",17.81 fold
same,Fold Induction of HMOX,"HPP-A 0.078 uM, Bardoxolone Methyl 0.156 uM",17.88 fold
same,Fold Induction of HMOX,"HPP-A 0.078 uM, Bardoxolone Methyl 0.312 uM",15.33 fold
same,Fold Induction of HMOX,"HPP-A 0.156 uM, Bardoxolone Methyl 0 uM",3.46 fold
same,Fold Induction of HMOX,"HPP-A 0.156 uM, Bardoxolone Methyl 0.0024 uM",7.32 fold
same,Fold Induction of HMOX,"HPP-A 0.156 uM, Bardoxolone Methyl 0.0048 uM",8.04 fold
same,Fold Induction of HMOX,"HPP-A 0.156 uM, Bardoxolone Methyl 0.0097 uM",12.05 fold
same,Fold Induction of HMOX,"HPP-A 0.156 uM, Bardoxolone Methyl 0.019 uM",15.95 fold
same,Fold Induction of HMOX,"HPP-A 0.156 uM, Bardoxolone Methyl 0.039 uM",17.59 fold
same,Fold Induction of HMOX,"HPP-A 0.156 uM, Bardoxolone Methyl 0.078 uM",18.44 fold
same,Fold Induction of HMOX,"HPP-A 0.156 uM, Bardoxolone Methyl 0.312 uM",15.98 fold
same,Fold Induction of HMOX,"HPP-A 0.312 uM, Bardoxolone Methyl 0 uM",9.82 fold
same,Fold Induction of HMOX,"HPP-A 0.312 uM, Bardoxolone Methyl 0.0024 uM",11.67 fold
same,Fold Induction of HMOX,"HPP-A 0.312 uM, Bardoxolone Methyl 0.0048 uM",13.59 fold
same,Fold Induction of HMOX,"HPP-A 0.312 uM, Bardoxolone Methyl 0.0097 uM",16.45 fold
same,Fold Induction of HMOX,"HPP-A 0.312 uM, Bardoxolone Methyl 0.019 uM",17.74 fold
same,Fold Induction of HMOX,"HPP-A 0.312 uM, Bardoxolone Methyl 0.039 uM",19.61 fold
same,Fold Induction of HMOX,"HPP-A 0.312 uM, Bardoxolone Methyl 0.078 uM",21.13 fold
same,Fold Induction of HMOX,"HPP-A 0.312 uM, Bardoxolone Methyl 0.156 uM",19.21 fold
same,Fold Induction of HMOX,"HPP-A 0.625 uM, Bardoxolone Methyl 0 uM",15.00 fold
same,Fold Induction of HMOX,"HPP-A 0.625 uM, Bardoxolone Methyl 0.0024 uM",15.70 fold
same,Fold Induction of HMOX,"HPP-A 0.625 uM, Bardoxolone Methyl 0.0048 uM",17.10 fold
same,Fold Induction of HMOX,"HPP-A 0.625 uM, Bardoxolone Methyl 0.0097 uM",17.18 fold
same,Fold Induction of HMOX,"HPP-A 0.625 uM, Bardoxolone Methyl 0.019 uM",16.84 fold
same,Fold Induction of HMOX,"HPP-A 0.625 uM, Bardoxolone Methyl 0.039 uM",17.24 fold
same,Fold Induction of HMOX,"HPP-A 0.625 uM, Bardoxolone Methyl 0.078 uM",18.60 fold
same,Fold Induction of HMOX,"HPP-A 0.625 uM, Bardoxolone Methyl 0.156 uM",18.68 fold
same,Fold Induction of HMOX,"HPP-A 0.625 uM, Bardoxolone Methyl 0.312 uM",12.69 fold
same,Fold Induction of HMOX,"HPP-A 1.25 uM, Bardoxolone Methyl 0 uM",16.17 fold
same,Fold Induction of HMOX,"HPP-A 1.25 uM, Bardoxolone Methyl 0.0024 uM",16.12 fold
same,Fold Induction of HMOX,"HPP-A 1.25 uM, Bardoxolone Methyl 0.0048 uM",17.26 fold
same,Fold Induction of HMOX,"HPP-A 1.25 uM, Bardoxolone Methyl 0.0097 uM",16.49 fold
same,Fold Induction of HMOX,"HPP-A 1.25 uM, Bardoxolone Methyl 0.019 uM",15.93 fold
same,Fold Induction of HMOX,"HPP-A 1.25 uM, Bardoxolone Methyl 0.039 uM",15.63 fold
same,Fold Induction of HMOX,"HPP-A 1.25 uM, Bardoxolone Methyl 0.078 uM",15.15 fold
same,Fold Induction of HMOX,"HPP-A 1.25 uM, Bardoxolone Methyl 0.156 uM",16.65 fold
same,Fold Induction of HMOX,"HPP-A 1.25 uM, Bardoxolone Methyl 0.312 uM",10.53 fold
same,Fold Induction of HMOX,"HPP-A 2.5 uM, Bardoxolone Methyl 0 uM",17.48 fold
same,Fold Induction of HMOX,"HPP-A 2.5 uM, Bardoxolone Methyl 0.0024 uM",18.81 fold
same,Fold Induction of HMOX,"HPP-A 2.5 uM, Bardoxolone Methyl 0.0048 uM",19.48 fold
same,Fold Induction of HMOX,"HPP-A 2.5 uM, Bardoxolone Methyl 0.0097 uM",19.42 fold
same,Fold Induction of HMOX,"HPP-A 2.5 uM, Bardoxolone Methyl 0.019 uM",17.04 fold
same,Fold Induction of HMOX,"HPP-A 2.5 uM, Bardoxolone Methyl 0.039 uM",14.71 fold
same,Fold Induction of HMOX,"HPP-A 2.5 uM, Bardoxolone Methyl 0.078 uM",14.33 fold
same,Fold Induction of HMOX,"HPP-A 2.5 uM, Bardoxolone Methyl 0.156 uM",12.49 fold
same,Fold Induction of HMOX,"HPP-A 5 uM, Bardoxolone Methyl 0 uM",17.72 fold
same,maximum HMOX1 fold induction,"HPP-A alone, concentrations greater than or equal to 2500 nM",18 fold
same,fold induction at 0.019 µM,[1],10
same,fold induction at 0.039 µM,[1],14.7
same,fold induction at 0.078 µM,[1],19.5
same,fold induction at 0.156 µM,[1],18.3
same,fold induction at 0.312 µM,[1],17.4
